Molecules are shown by their SMILES.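 Values below derive from 48-hour exposures of cells grown in 96-well plates, with endpoints linearly interpolated between the two concentrations bracketing the appropriate inhibition level. Abbreviation: GI50, concentration required for 50% inhibition of growth. TGI: concentration producing complete growth inhibition.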 Where only a bound is given, the exact number is not on record here.

Some test systems named below: SW-620 colon; TK-10 renal; OVCAR-8 ovarian; CAKI-1 renal; OVCAR-5 ovarian; EKVX NSCLC; M14 melanoma; 786-0 renal; HCT-116 colon; HT29 colon.
Holding throughout (assay): NCI tumour cell line growth inhibition, 48 h

For `COc1ncnc(C2CC2)c1-c1ncc2cnn(Cc3ccc(-c4nc(C(F)(F)F)cn4C(C)C)cc3)c2n1`, the GI50 was 28 µM in the test on SW-620 colon; 29 µM with TK-10 renal; 21 µM with OVCAR-8 ovarian; 14.2 µM with CAKI-1 renal; 26.2 µM with OVCAR-5 ovarian; 19 µM in the test on EKVX NSCLC. In addition, the GI50 in the test with M14 melanoma was 28.1 µM; in the test on 786-0 renal, 31.4 µM; in the test with HCT-116 colon, 22.2 µM; in the test with HT29 colon it was 17.9 µM. The TGI with SW-620 colon is above 100 µM; in the test on TK-10 renal it was above 100 µM; in the test with OVCAR-8 ovarian it was above 100 µM; with CAKI-1 renal, above 100 µM; in the test on OVCAR-5 ovarian it was above 100 µM; with EKVX NSCLC, 95.3 µM. Moreover, the TGI in the test on M14 melanoma, in the test on 786-0 renal, with HCT-116 colon and in the test on HT29 colon was above 100 µM in each case.
On to `O=C(Nc1nc2ncn(CCI)c2c(=O)[nH]1)c1ccccc1`, for which the TGI was above 100 µM in the test on SW-620 colon; above 100 µM with TK-10 renal; above 62.2 µM with OVCAR-8 ovarian; above 100 µM in the test with CAKI-1 renal; above 100 µM in the test with OVCAR-5 ovarian; above 100 µM with EKVX NSCLC. Further, the TGI with M14 melanoma, in the test with 786-0 renal, in the test on HCT-116 colon and in the test on HT29 colon was above 100 µM throughout.
Take `C=C(CCCCC)CN1CCCC1[C@@](C)(O)CC(=O)OCC` (stereo not given in full): the TGI in the test with SW-620 colon, in the test with TK-10 renal, in the test on OVCAR-8 ovarian, in the test with CAKI-1 renal, in the test with OVCAR-5 ovarian and in the test with EKVX NSCLC was above 100 µM each time. Moreover, the TGI in the test with M14 melanoma, in the test on 786-0 renal, in the test with HCT-116 colon and with HT29 colon was above 100 µM each time.
Turning to `CS(=O)(=O)N/N=C/CN1C(=O)c2ccccc2C1=O`, the TGI in the test on SW-620 colon, in the test with TK-10 renal, in the test with OVCAR-8 ovarian, with CAKI-1 renal, in the test on OVCAR-5 ovarian and in the test on EKVX NSCLC was above 100 µM each time. For the same molecule, the TGI with M14 melanoma, in the test on 786-0 renal, in the test on HCT-116 colon and in the test on HT29 colon was above 100 µM in each case.
Consider `COC(=O)C12C3C4C1C1C2C3C41C(=O)OC(C)(C)C` (stereo not given), for which the TGI in the test on SW-620 colon was above 75 µM; in the test with TK-10 renal, above 100 µM; in the test with OVCAR-8 ovarian, above 100 µM; in the test on CAKI-1 renal, above 100 µM; in the test with OVCAR-5 ovarian, above 100 µM; in the test on EKVX NSCLC, above 100 µM. The TGI was above 100 µM in the test on M14 melanoma, above 100 µM in the test on 786-0 renal, 70.3 µM in the test with HCT-116 colon and above 100 µM in the test with HT29 colon.
Regarding `COC(=O)c1cc2c3ccccc3n(C(C)=O)c2cn1`, the TGI in the test with SW-620 colon is above 100 µM; in the test with TK-10 renal it was above 100 µM; with OVCAR-8 ovarian, above 100 µM; in the test on CAKI-1 renal it was 48.9 µM; in the test on OVCAR-5 ovarian, above 100 µM; in the test with EKVX NSCLC, above 100 µM. The TGI in the test with M14 melanoma, with 786-0 renal, in the test with HCT-116 colon and in the test with HT29 colon was above 100 µM throughout.
`COC(=O)C1=C(c2ccc3c(c2)OCO3)O[C@H](c2cc(OC)c(OC)c(OC)c2)[C@H]1COC(C)=O`: the TGI in the test on SW-620 colon is above 100 µM; in the test on TK-10 renal it was above 100 µM; in the test on OVCAR-8 ovarian, 93.6 µM; in the test on CAKI-1 renal it was 66.8 µM; in the test on OVCAR-5 ovarian it was above 100 µM; in the test on EKVX NSCLC, above 100 µM. In addition, the TGI in the test with M14 melanoma was found to be 13.6 µM; with 786-0 renal, 42.3 µM; with HCT-116 colon it was 19.6 µM; with HT29 colon, 11.5 µM.
As for `O=C1CCCC/C(=C/c2ccccc2)N1`, the TGI in the test with SW-620 colon, in the test with TK-10 renal, in the test with OVCAR-8 ovarian, in the test on CAKI-1 renal, with OVCAR-5 ovarian and in the test with EKVX NSCLC was above 100 µM each time. For the same molecule, the TGI with M14 melanoma, with 786-0 renal, in the test on HCT-116 colon and in the test on HT29 colon was above 100 µM in each case.
Consider `C=C(C=O)[C@@H]1C2OC(=O)C(=C)[C@@H]2CC(O)[C@@]1(C)CC` (stereo not given in full), for which the TGI with SW-620 colon was found to be 11.8 µM; in the test on TK-10 renal it was 29.9 µM; in the test with OVCAR-8 ovarian it was 20.4 µM; with CAKI-1 renal, 24 µM; with OVCAR-5 ovarian it was 32 µM; in the test on EKVX NSCLC it was 51.1 µM. Also, the TGI in the test with M14 melanoma is 19.1 µM; with 786-0 renal, 10.2 µM; in the test on HCT-116 colon it was 14.5 µM; with HT29 colon, 21.5 µM.
Turning to `CCC[CH2][Sn]([CH2]CCC)([CH2]CCC)[O]C(=O)CC`, the GI50 was 0.151 µM in the test with SW-620 colon; 0.161 µM with TK-10 renal; 0.205 µM with OVCAR-8 ovarian; 0.0611 µM in the test with CAKI-1 renal; 0.154 µM in the test with OVCAR-5 ovarian; 0.121 µM in the test on EKVX NSCLC. Besides, the GI50 in the test on M14 melanoma is 0.167 µM; with 786-0 renal, 0.151 µM; with HCT-116 colon it was 0.138 µM; in the test on HT29 colon, 0.13 µM. For the same molecule, the TGI in the test on SW-620 colon is 0.301 µM; in the test on TK-10 renal it was 0.305 µM; in the test on OVCAR-8 ovarian, 0.444 µM; in the test with CAKI-1 renal, 0.214 µM; in the test with OVCAR-5 ovarian, 0.387 µM; with EKVX NSCLC it was 0.335 µM. For the same molecule, the TGI amounted to 0.343 µM in the test with M14 melanoma, 0.295 µM with 786-0 renal, 0.294 µM with HCT-116 colon and 0.322 µM with HT29 colon.
On to `Oc1ccc(Cl)cc1Cc1cc(Cl)cc(Cl)c1O`, for which the GI50 with SW-620 colon is 5.37 µM; with TK-10 renal it was 7.88 µM; in the test on OVCAR-8 ovarian it was 12.8 µM; with CAKI-1 renal, 7.86 µM; in the test with OVCAR-5 ovarian, 11.3 µM; with EKVX NSCLC it was 3.75 µM. Further, the GI50 in the test on M14 melanoma is 4.61 µM; in the test on 786-0 renal, 8.98 µM; in the test with HCT-116 colon, 3.53 µM; in the test with HT29 colon, 19.8 µM. For the same molecule, the TGI in the test on SW-620 colon came out at 19.9 µM; with TK-10 renal, 44.1 µM; in the test with OVCAR-8 ovarian it was 76.4 µM; with CAKI-1 renal, 35.9 µM; in the test on OVCAR-5 ovarian, 26.6 µM; with EKVX NSCLC it was 62.5 µM. For the same molecule, the TGI with M14 melanoma amounted to 23 µM; with 786-0 renal, 30.1 µM; with HCT-116 colon it was 12.9 µM; with HT29 colon, 43.9 µM.

Source of the values: PubChem BioAssay (NCI).
